Laboratory results published in patent publication US11053230B2, “3-hydroxy-imidazolidin-4-one compounds as inhibitors of indoleamine 2,3-dioxygenase” (Netherlands Translational Research Center B.V., priority 2017, dated 2021).
Values joined by “and” are separate entries in the source; they are usually repeats but may differ in a detail not shown here. Equal values may be shown once.

Target: T1, IDO1 (Homo sapiens, UniProt P14902)
T1 construct: Recombinant full-length IDO1 (Seegers, N., et al.) and all other assay components were diluted in IDO1 reaction buffer; made in house
Assay: Biochemical IDO1 assay (NFK GreenScreen)
Conditions: for IC50: NFK GreenScreen, 25 nM IDO1, 100 μM L-tryptophan, read-out: IC50, inhibitory potency on IDO1; for relative activity of the separated isomers: stated in the synthesis examples, assay not named
Experimental: Inhibition of IDO1 activity can be measured by determining the enzymatic conversion of L-tryptophan into N-formylkynurenine (NFK) in a reaction mixture containing IDO1 and test compound. The formation of NFK can be detected directly by, for instance, high-performance liquid chromatography (HPLC) methods, or by intrinsic fluorescence.
Compounds were serially diluted in dimethylsulfoxide (DMSO) and finally in IDO1 reaction buffer, consisting of 50 mM NaH2PO4, pH7.0, supplemented with 0.05% Tween-20 (cat. No. P7949; Sigma Aldrich) and 1% glycerol. Recombinant full-length IDO1 (Seegers, N., et al.) and all other assay components were diluted in IDO1 reaction buffer. […] Subsequently, 10 μl of 0.4 mM of the substrate L-tryptophan was added, i.e., the final concentration of L-tryptophan was 100 μM. The DMSO concentration in the assay was 0.3%. […] Incubation was continued for 60 min at room temperature. Then, 10 μl of NFK Green™ (NTRC, Oss, The Netherlands) was added, the plate was sealed, and the reaction was developed for 3 hours at 37° C. To determine the production of N-formyl kynurenine (NFK), the seal was removed and fluorescence was read on an EnVision multimode reader (Perkin Elmer, Waltham, Mass., USA). IC50 were calculated using XLfit™ software (ID Business Solutions, Ltd., Surrey, U.K.).

T1 sequence (P14902 whole entry): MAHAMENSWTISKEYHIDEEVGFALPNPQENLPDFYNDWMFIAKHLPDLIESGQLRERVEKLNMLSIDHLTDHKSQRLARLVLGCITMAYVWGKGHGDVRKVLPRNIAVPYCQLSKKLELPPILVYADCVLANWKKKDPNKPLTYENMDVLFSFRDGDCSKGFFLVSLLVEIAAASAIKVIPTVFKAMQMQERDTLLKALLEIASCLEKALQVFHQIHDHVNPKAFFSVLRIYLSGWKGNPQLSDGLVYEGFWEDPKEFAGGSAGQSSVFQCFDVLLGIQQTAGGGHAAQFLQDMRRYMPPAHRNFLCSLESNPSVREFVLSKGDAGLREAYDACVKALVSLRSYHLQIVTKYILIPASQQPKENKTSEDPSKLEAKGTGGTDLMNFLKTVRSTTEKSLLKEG

SMILES	IC50	relative activity of the separated isomers
O=C1CN(C(=O)c2c(F)cccc2Cl)C(c2cc(Br)cs2)N1O (stereo not shown) [Example 7, 2-(4-Bromo-2-thienyl)-1-(2-chloro-6-fluoro-benzoyl)-3-hydroxy-imidazolidin-4-one]	≤ 1000 nM	
C#Cc1ccc(F)c(C(=O)N2CC(=O)N(O)C2c2cc(Br)cs2)c1F (stereo not shown) [Example 127, 2-(4-Bromo-2-thienyl)-1-(3-ethynyl-2,6-difluoro-benzoyl)-3-hydroxy-imidazolidin-4-one]	≤ 1000 nM	
NS(=O)(=O)NCC#Cc1cc(F)c(C(=O)N2CC(=O)N(O)C2c2cc(Br)cs2)c(F)c1 (stereo not shown) [Example 80, 2-(4-Bromo-2-thienyl)-1-[2,6-difluoro-4-[3-(sulfamoylamino)prop-1-ynyl]benzoyl]-3-hydroxy-4-oxo-imidazolidine]	≤ 1000 nM	
O=C1CN(C(=O)c2c(F)cc(CCC3CCCCC3)cc2F)C(c2cc(Br)cs2)N1O (stereo not shown) [Example 92, 2-(4-Bromo-2-thienyl)-1-[4-(2-cyclohexylethyl)-2,6-difluoro-benzoyl]-3-hydroxy-imidazolidin-4-one]	≤ 5000 nM and 1000 to 5000 nM	
CN(C)c1cc(F)c(C(=O)N2CC(=O)N(O)C2c2cc(Br)cs2)c(F)c1 (stereo not shown) [Example 97, 2-(4-Bromo-2-thienyl)-1-[4-(dimethylamino)-2,6-difluoro-benzoyl]-3-hydroxy-imidazolidin-4-one]	≤ 5000 nM and 1000 to 5000 nM	
Cn1cc(-c2ccc(F)c(C(=O)N3CC(=O)N(O)C3c3cc(Br)cs3)c2F)cn1 (stereo not shown) [Example 125, 2-(4-Bromo-2-thienyl)-1-[2,6-difluoro-3-(1-methylpyrazol-4-yl)benzoyl]-3-hydroxy-imidazolidin-4-one]	≤ 1000 nM	
CC(C)C#Cc1cc(F)c(C(=O)N2CC(=O)N(O)C2c2cc(Br)cs2)c(F)c1 (stereo not shown) [Example 50, 2-(4-Bromo-2-thienyl)-1-[2,6-difluoro-4-(3-methylbut-1-ynyl)benzoyl]-3-hydroxy-imidazolidin-4-one]	≤ 1000 nM	
O=C1CN(C(=O)c2c(Cl)cccc2Cl)C(c2cc(Br)cs2)N1O (stereo not shown) [Example 10, 2-(4-Bromo-2-thienyl)-1-(2,6-dichlorobenzoyl)-3-hydroxy-imidazolidin-4-one]	≤ 5000 nM and 1000 to 5000 nM	
Cc1cc(C2N(O)C(=O)CN2C(=O)c2c(F)cccc2F)sc1Cl (stereo not shown) [Example 112, 2-(5-Chloro-4-methyl-2-thienyl)-1-(2,6-difluorobenzoyl)-3-hydroxy-imidazolidin-4-one]	≤ 1000 nM	
O=C1CN(C(=O)c2c(F)cc(-c3cccnc3)cc2F)C(c2cc(Br)cs2)N1O (stereo not shown) [Example 88, 2-(4-Bromo-2-thienyl)-1-[2,6-difluoro-4-(3-pyridyl)benzoyl]-3-hydroxy-imidazolidin-4-one]	≤ 1000 nM	
CS(=O)(=O)NCc1cc(F)c(C(=O)N2CC(=O)N(O)C2c2cc(Br)cs2)c(F)c1 (stereo not shown) [Example 91, N-[[4-[2-(4-Bromo-2-thienyl)-3-hydroxy-4-oxo-imidazolidine-1-carbonyl]-3,5-difluoro-phenyl]methyl]methanesulfonamide]	≤ 1000 nM	
Cc1cc(F)c(C(=O)N2CC(=O)N(O)C2c2cc(Br)cs2)c(F)c1 (stereo not shown) [Example 84, 2-(4-Bromo-2-thienyl)-1-(2,6-difluoro-4-methyl-benzoyl)-3-hydroxy-imidazolidin-4-one]	≤ 1000 nM	
COc1cc(F)c(C(=O)N2CC(=O)N(O)C2c2cc(Br)cs2)c(F)c1 (stereo not shown) [Example 51, 2-(4-Bromo-2-thienyl)-1-(2,6-difluoro-4-methoxy-benzoyl)-3-hydroxy-imidazolidin-4-one]	≤ 1000 nM	
O=C1CN(C(=O)c2c(F)cccc2F)C(c2cc(I)cs2)N1O (stereo not shown) [Example 36, 1-(2,6-Difluorobenzoyl)-3-hydroxy-2-(4-iodo-2-thienyl)imidazolidin-4-one]	≤ 1000 nM	
O=C1CN(C(=O)c2c(F)ccc(B(O)O)c2F)C(c2cc(Br)cs2)N1O (stereo not shown) [Example 126, [3-[2-(4-Bromo-2-thienyl)-3-hydroxy-4-oxo-imidazolidine-1-carbonyl]-2,4-difluoro-phenyl]boronic acid]	≤ 5000 nM and 1000 to 5000 nM	
O=C1CN(Cc2c(F)cccc2F)C(c2cc(Br)cs2)N1O (single isomer, unassigned) [Example 45b, 2-(4-Bromo-2-thienyl)-1-[(2,6-difluorophenyl)methyl]-3-hydroxy-imidazolidin-4-one]	≤ 1000 nM	most active isomer
O=C1CN(C(=O)c2c(F)cccc2F)C(c2csc([N+](=O)[O-])c2)N1O (stereo not shown) [Example 20, 1-(2,6-Difluorobenzoyl)-3-hydroxy-2-(5-nitro-3-thienyl)imidazolidin-4-one]	≤ 1000 nM	
O=C1CN(C(=O)c2ccc(Oc3ccccc3)cc2)C(c2cc(Br)cs2)N1O (stereo not shown) [Example 54, 2-(4-Bromo-2-thienyl)-3-hydroxy-1-(4-phenoxybenzoyl)imidazolidin-4-one]	≤ 5000 nM and 1000 to 5000 nM	

SMILES	IC50	relative activity of the separated isomers
O=C1CN(C(=O)c2ccccc2F)C(c2ccc(Br)s2)N1O (stereo not shown) [Example 2, 2-(5-Bromo-2-thienyl)-1-(2-fluorobenzoyl)-3-hydroxy-imidazolidin-4-one]	≤ 1000 nM	
O=C1CN(C(=O)c2ccccc2F)C(c2cc(Br)cs2)N1O (stereo not shown) [Example 9, 2-(4-Bromo-2-thienyl)-1-(2-fluorobenzoyl)-3-hydroxy-imidazolidin-4-one]	≤ 1000 nM	
O=C1CN(C(=O)c2ccc(C(F)(F)F)cc2F)C(c2cc(Br)cs2)N1O (stereo not shown) [Example 64, 2-(4-Bromo-2-thienyl)-1-[2-fluoro-4-(trifluoromethyl)benzoyl]-3-hydroxy-imidazolidin-4-one]	≤ 5000 nM and 1000 to 5000 nM	
Cn1cc(-c2ccc(F)c(C(=O)N3CC(=O)N(O)C3c3csc(Br)c3)c2F)cn1 (stereo not shown) [Example 124, 2-(5-Bromo-3-thienyl)-1-[2,6-difluoro-3-(1-methylpyrazol-4-yl)benzoyl]-3-hydroxy-imidazolidin-4-one]	≤ 1000 nM	
O=C1CN(C(=O)c2c(F)ccc(Br)c2F)C(c2csc(Br)c2)N1O (stereo not shown) [Example 101, 1-(3-Bromo-2,6-difluoro-benzoyl)-2-(5-bromo-3-thienyl)-3-hydroxy-imidazolidin-4-one]	≤ 1000 nM	
O=C1CN(C(=O)c2c(F)cc(C#CC3CCCCC3)cc2F)C(c2cc(Br)cs2)N1O (stereo not shown) [Example 78, 2-(4-Bromo-2-thienyl)-1-[4-(2-cyclohexylethynyl)-2,6-difluoro-benzoyl]-3-hydroxy-imidazolidin-4-one]	≤ 1000 nM	
O=C1CN(C(=O)c2c(F)cc(-c3cn[nH]c3)cc2F)C(c2cc(Br)cs2)N1O (stereo not shown) [Example 96, 2-(4-bromo-2-thienyl)-1-[2,6-difluoro-4-(1H-pyrazol-4-yl)benzoyl]-3-hydroxy-imidazolidin-4-one]	≤ 1000 nM	
O=C1CN(C(=O)C2CCCCC2)C(c2cc(Br)cs2)N1O (stereo not shown) [Example 67, 2-(4-Bromo-2-thienyl)-1-(cyclohexanecarbonyl)-3-hydroxy-imidazolidin-4-one]	≤ 5000 nM and 1000 to 5000 nM	
O=C1CN(C(=O)c2c(F)ccc([N+](=O)[O-])c2F)C(c2cc(Br)cs2)N1O (stereo not shown) [Example 106, 2-(4-Bromo-2-thienyl)-1-(2,6-difluoro-3-nitro-benzoyl)-3-hydroxy-imidazolidin-4-one]	≤ 1000 nM	
O=C1CN(C(=O)c2c(F)cc(-c3ccccc3)cc2F)C(c2cc(Br)cs2)N1O (stereo not shown) [Example 85, 2-(4-Bromo-2-thienyl)-1-(2,6-difluoro-4-phenyl-benzoyl)-3-hydroxy-imidazolidin-4-one]	≤ 1000 nM	
O=C1CN(C(=O)c2c(F)ccc(-c3ccc4ccccc4c3)c2F)C(c2cc(Br)cs2)N1O (stereo not shown) [Example 135, 2-(4-Bromo-2-thienyl)-1-[2,6-difluoro-3-(2-naphthyl)benzoyl]-3-hydroxy-imidazolidin-4-one]	≤ 1000 nM	
C[C@@H](c1ccccc1)N1CC(=O)N(O)C1c1cc(Br)cs1 (single isomer, unassigned) [Example 118a]		less active isomer
N#Cc1csc(C2N(O)C(=O)CN2C(=O)c2c(F)cccc2F)c1 (stereo not shown) [Example 30, 5-[1-(2,6-Difluorobenzoyl)-3-hydroxy-4-oxo-imidazolidin-2-yl]thiophene-3-carbonitrile]	≤ 5000 nM and 1000 to 5000 nM	
Cc1ccc(F)c(C(=O)N2CC(=O)N(O)C2c2csc(Br)c2)c1F (stereo not shown) [Example 102, 2-(5-Bromo-3-thienyl)-1-(2,6-difluoro-3-methyl-benzoyl)-3-hydroxy-imidazolidin-4-one]	≤ 1000 nM	
Nc1ccc(F)c(C(=O)N2CC(=O)N(O)C2c2cc(Br)cs2)c1F (stereo not shown) [Example 105, 1-(3-Amino-2,6-difluoro-benzoyl)-2-(4-bromo-2-thienyl)-3-hydroxy-imidazolidin-4-one]	≤ 1000 nM	
NS(=O)(=O)NC1(C#Cc2cc(F)c(C(=O)N3CC(=O)N(O)C3c3cc(Br)cs3)c(F)c2)CC1 (stereo not shown) [Example 90, 2-(4-Bromo-2-thienyl)-1-[2,6-difluoro-4-[2-[1-(sulfamoylamino)cyclopropyl]ethynyl]benzoyl]-3-hydroxy-4-oxo-imidazolidine]	≤ 1000 nM	
NC1(C#Cc2cc(F)c(C(=O)N3CC(=O)N(O)C3c3cc(Br)cs3)c(F)c2)CC1 (stereo not shown) [Example 89, 1-[4-[2-(1-Aminocyclopropyl)ethynyl]-2,6-difluoro-benzoyl]-2-(4-bromo-2-thienyl)-3-hydroxy-imidazolidin-4-one]	≤ 1000 nM	
O=C1CN(C(=O)c2c(F)cccc2F)C(c2cc(I)c(F)s2)N1O (stereo not shown) [Example 116, 1-(2,6-Difluorobenzoyl)-2-(5-fluoro-4-iodo-2-thienyl)-3-hydroxy-imidazolidin-4-one]	≤ 1000 nM	
